Patent publication US7214668B2, “Phosphonic acid based prodrugs of PMEA and its analogues” (Metabasis Therapeutics, Inc., priority 2002, dated 2007)
Read-outs that look alike come from different tables or passages of the source. Values belong to the molecule of their own block, whether it stands above or below them.

Legend:
[1] = PMEApp accumulation in liver organ following oral administration to normal fasted rats; type: in vivo, rat; details: 30 mg/kg PMEA equivalents p.o.
Protocol: PMEA prodrugs were tested in vivo to identify prodrugs with suitable oral bioavailability and favorable intrahepatic activation rates.
Following oral administration of 30-mg/kg prodrug (PMEA equivalents) to normal, fasted rats, liver organ samples were freeze-clamped at 8 hr. […] The retention time of PMEApp was 18.6 minutes.

[2] = test system: freshly isolated rat hepatocytes; details: 250 μM prodrug
Protocol: PMEA prodrugs were tested.
Hepatocytes were prepared from fed Sprague-Dawley rats (250–300 g) according to the procedure of Berry and Friend (Berry, M. N. Friend, D. S., J. Cell Biol. 43:506–520 (1969)) as modified by Groen (Groen, A. K. et al., Eur. J. Biochem 122:87–93 (1982)). Hepatocytes (60 mg/ml wet weight, >85% trypan blue viability) were incubated in 2 ml of krebs-bicarbonate buffer containing 20 mM glucose, and 1 mg/ml BSA for 4 hours in the presence of 250 μM PMEA prodrugs (from 25 mM stock solutions of prodrugs in methanol). At appropriate time points throughout the incubation (0, 1, 2, 4 hours), 400-μl aliquots of the cell suspension were taken and centrifuged through a silicon/mineral oil layer into 10% perchloric acid to extract intracellular nucleotides. The acidic cell extracts were neutralized with 0.3 volumes of 3M KOH/3M […] before evaluating PMEApp levels by ion exchange HPLC (Hewlett Packard 1050) using a Whatman Partisphere SAX (5 μm, 4.6×125 mm) column. Samples were loaded onto the column in 0.3M-ammonium phosphate buffer pH 3.5 and eluted from the column with a gradient to 0.8 M ammonium phosphate pH 3.5.

[3] = test system: liver microsomes isolated from rats induced with dexamethasone; test: In vitro activation of PMEA prodrug analogues to PMEA by rat liver microsomes
Protocol: PMEA prodrug analogues were tested for activation to PMEA in reactions catalyzed by the microsomal fraction of rat liver.
Prodrugs (25 and 250 μM) were tested for activation by liver microsomes isolated from rats induced with dexamethasone to enhance CYP3A4 activity (Human Biologics Inc., Phoenix Ariz.). Reactions were conducted in 0.1 M KH2PO4, pH 7.4, in the presence of 2 mM NADPH and liver microsomes (1 mg/mL). Reaction mixtures were incubated for 5 minutes in an Eppendorf Thermomixer 5436 (37° C., speed 6). Reactions were terminated by the addition of 1.5 volumes of methanol. The resulting extracts were clarified by centrifugation at 14,000 rpm in an Eppendorf microfuge (20 minutes). The supernatants (200 μL) were evaporated under vacuum and heat to dryness before resuspending in 80 μL of buffer A (see below) for PMEA analysis. Spiked standards of 9-[2-(phosophonomethoxy)ethyl]adenine, (PMEA, lot 980397, Metabasis Therapeutics) were prepared in the same reaction mixture and processed in an identical fashion. After resuspension, samples were analyzed by reverse phase HPLC (Altima C-18 column) with use of an ion-pairing buffer (Buffer A) consisting of 10 mM ammonium phosphate, 2.5 mM octyltriethylammonium phosphate, pH 5.5. Samples were loaded in Buffer A and eluted with a methanol gradient from 40% to 80% over 20 minutes. Detection was at 265 nm.

[4] = 30 mg/kg PMEA equivalents, in water, normal male rats
Protocol: Compound 56 was solubilized in water for intravenous and oral administration. […] Liver organ concentrations of PMEApp were determined as indicated in Example I.

[5] = test system: human liver microsomes; test: Cis versus trans prodrug activation in human liver microsomes; type: in vitro ADME; details: 100 μM prodrug, 2 mg/mL human liver microsomes; for Activation Rate: 5 minutes, 37° C.
Excerpt: The activation rates of cis (Compound 56, lot #20010093) and trans (9-{2-[2,4-trans-(S)-(+)-4-(3-chlorophenyl)-2-oxo-1,3,2-dioxaphosphorinan-2-yl]methoxyethyl} adenine, (lot 20010195) PMEA prodrugs was compared in order to establish which prodrug diastereomer is activated the most efficiently in human liver microsomes.
Human liver microsomes (mixed pool) were purchased from In Vitro Technologies (Lot RQX). […] Reactions were quenched with 60% methanol.

[6] = Solubility and stability of the mesylate salt of Compound 54 in water; type: physicochemical
Protocol: Ten Compound 54 salt forms (L-tartartric, succinic, maleic, L-malic, D-malic, citric, hydrochloric, phosphoric, nitric, methane-sulfonic acids) were evaluated to identify the best salt form to selectively crystallize out the cis-diastereomer from cis:trans mixtures following the prodrug coupling procedure. Solubility and stability of the mesylate salt of Compound 54 were analyzed in water.

[7] = cited from earlier work
[8] = oral administration, species not stated; cited from earlier work
[9] = test system: freshly isolated rat hepatocytes; test: PMEApp accumulation in rat hepatocytes following incubation with Compound 56 and PMEA (25 μM); type: cell-based; details: 0–4 h, rat hepatocytes 20 mg/ml
Protocol: Hepatocyte pellets were immediately sonicated in 300 μl of ice-cold acetonitrile followed by the addition of 200 μl of water. Hepatocyte extracts were centrifuged for 20 minutes in an Eppendorf centrifuge at 4° C. and supernatants from the extracts were transferred to a fresh tube. Hepatocyte extract supernatants were evaporated to dryness under vacuum and then resuspended in 200 μl of water. PMEApp concentrations were quantified by LC-MS/MS (negative-ion mode) based on authentic PMEApp standards spiked into hepatocyte extracts. Ten microliter samples were loaded onto a Phenomenex Luna […] C8 column (50×2 mm) in 20 mM N-N-dimethylhexylamine, 10 mM propionic acid and eluted with a gradient of methanol from 20–64% over 5.5 minutes. An API 2000 triple quadrupole mass spectrometer fitted with a pneumatically-assisted electrospray interface was used to quantify the negative ion (PO3^−) using a Multiple Reaction Monitoring (MRM) technique.

[10] = humans; i.v. dose; cited from earlier work
[11] = cited from earlier work; remark: listed apart in the source
[12] = cited from earlier work; remark: listed apart in the source
[13] = dog, after bis POM PMEA, Cundy et al. 1997; cited from earlier work
[14] = cited from earlier work; remark: listed apart in the source
[15] = 30 mg/kg PMEA equivalents p.o., rats
Protocol: Intact prodrug and the metabolite 9-[2-(phosophonomethoxy)ethyl]adenine (PMEA) and the respective mono-acids were measured in the plasma at 0 (predose), 0.33, 1, 3, 5, 8, and 12 hrs post dose by HPLC using fluorescence detection. The pharmacokinetic parameters were calculated based on noncompartmental analysis of the concentration-time profile.

[16] = Tissue distribution of PMEA equivalents after oral tritiated Compound 4 and bis POM PMEA in rats; details: p.o.
Protocol: Total tritium counts were analyzed in solubilized samples of liver organ, kidney, plasma, urine, red blood cells, small intestine, as well as small intestine contents and feces obtained at various time points over 24 hours. Liver organ specificity was assessed by comparison of the temporal profiles of total tritium in liver organ versus kidney, small intestine, plasma, and red blood cells. Metabolite profiles in perchloric acid extracts of liver organ, kidney, small intestine, feces and urine were analyzed by HPLC.

[17] = Plasma and urine PMEA following oral Compound 4 and bis POM PMEA in rats; type: in vivo, rat; details: 30 mg/kg PMEA equivalents p.o.
Protocol: PMEA levels (0–12 h) were quantified in plasma by fluorescence HPLC following chloroacetaldehyde derivatization. PMEA levels in urine were quantified 48 hours after treatment.
Plasma drug levels: PMEA was determined in plasma by a modification of the procedure described in the literature (Shaw J P, Louie M S, Krishnamurthy V V, Arimilli M N, Jones R J, Bidgood A M, Lee W A, & Cundy K C, Drug Metabolism and Disposition, 25:362–366 (1997)). Plasma (100 μL) samples were extracted with 2 volumes of 0.1% TFA in acetonitrile. Following centrifugation to remove the precipitate, the supernatant was evaporated to dryness. The dried plasma was reconstituted with 200 μL of the derivatization cocktail consisting of 0.34% chloroacetaldehyde in 100 mM sodium acetate pH 4.5 and incubated at 95° C. for 40 min. The samples were evaporated to dryness and reconstituted with mobile phase for analysis by HPLC. The derivatized PMEA was analyzed by an HPLC system (Hewlett Packard 1090) consisting of a Beckman Ultrasphere ODS 4.6×150 mm (5 μm) column developed with a 20-min gradient of 0–30% acetonitrile in 20 mM potassium phosphate pH 6.2. Fluorescence was monitored at an excitation and emission wavelength of 240 and 420 nm, respectively. The column temperature was 40° C. and the flow rate was 1.5 mL/min. The derivatized PMEA was detected and quantified by comparison to an authentic standard prepared in plasma and eluted at approximately 6 minutes. The limit of quantitation of PMEA, was 0.25 μg/mL.
Urinary excretion studies: The percent excretion of PMEA in urine was assessed by a modification of a previously described procedure (Russell J W, Marrero D, Whiterock V J, & Klunk L J, J Chromatog, 572:321–326 (1991)). Aliquots (0.25–0.5 mL) of urine samples and spiked standards were incubated with an equal volume of 17% (v/v) of 50% chloroacetaldehyde in 100 mM sodium acetate pH 4.5 at 50° C. for 4 hrs. Following centrifugation, the supernatant was analyzed by the HPLC method described in the previous section.

[18] = 25 μM prodrug, 1 mg/mL microsomes, 2 mM NADPH, 5 minutes, 37° C., PMEA formation
[19] = 250 μM prodrug, 1 mg/mL microsomes, 2 mM NADPH, 5 minutes, 37° C., PMEA formation

Structure (SMILES): Nc1ncnc2c1ncn2CCOCP1(=O)OCCC(c2ccccc2)O1 (mixture of isomers) [Compound 1]
- Rats, PMEApp levels in liver organ @ 8 hr., 30 mg/kg, p.o. [1]: 0.6 nmol/g

Structure (SMILES): Nc1ncnc2c1ncn2CCOCP1(=O)OCCC(c2ccncc2)O1 (mixture of isomers) [Compound 2]
- Rat Hepatocytes, PMEApp formation, 250 μM, AUC 0–4 h [2]: 106.8 nmol·h/g

Structure (SMILES): Nc1ncnc2c1ncn2CCOCP1(=O)OCCC(c2cc(Cl)cc(Cl)c2)O1 (mixture of isomers) [Compound 3]
- Activation Rate, Dex. Rat Liver Microsomes, 25 μM [3]: 2.2 nmol/min/mg
- Activation Rate, Dex. Rat Liver Microsomes, 250 μM [3]: 1.9 nmol/min/mg

- Activation Rate, Dex. Rat Liver Microsomes, 25 μM [3, 18]: 1.3 nmol/min/mg
- Activation Rate, Dex. Rat Liver Microsomes, 250 μM [3, 19]: 1.5 nmol/min/mg
- Rats, PMEApp levels in liver organ @ 8 hr., 30 mg/kg, p.o. [1]: 2.6 nmol/g
Structure (SMILES): Nc1ncnc2c1ncn2CCOCP1(=O)OCCC(c2ccc(Br)c(F)c2)O1 (mixture of isomers) [Compound 5]

Structure (SMILES): Nc1ncnc2c1ncn2CCOCP1(=O)OCCC(c2cccc(Br)c2)O1 (mixture of isomers) [Compound 7]
- Rats, PMEApp levels in liver organ @ 8 hr., 30 mg/kg, p.o. [1]: 2.2 nmol/g

- Rats, PMEApp levels in liver organ @ 8 hr., 30 mg/kg, p.o. [1]: 2.2 nmol/g
Structure (SMILES): Nc1ncnc2c1ncn2CCOCP1(=O)OCCC(c2cc(F)cc(F)c2)O1 (mixture of isomers) [Compound 10]

- Activation Rate, Dex. Rat Liver Microsomes, 25 μM [3, 18]: <0.5 nmol/min/mg
- Activation Rate, Dex. Rat Liver Microsomes, 250 μM [3, 19]: 0.6 nmol/min/mg
Structure (SMILES): Cc1ccc(C2CCOP(=O)(COCCn3cnc4c(N)ncnc43)O2)cn1 (mixture of isomers) [Compound 18]

Structure (SMILES): CS(=O)(=O)O.Nc1ncnc2c1ncn2CCOCP1(=O)OCC[C@@H](c2cccc(Cl)c2)O1 (stereo in doubt) [Compound 56, 9-{2-[2,4-cis-(S)-(+)-4-(3′-Chlorophenyl)-2-oxo-1,3,2-dioxaphosphorinan-2-yl]metboxyethyl}adenine Methanesulfonate]
- OBAV (ratio of AUC of liver organ PMEApp oral vs i.v.) [4]: 42%
- Activation Rate [5]: 0.45 ± 0.01 nmol/mg/min
- Decomposition of dosing solutions ([6]; 30 and 300 mg/ml in water, 5 days, room temperature): < 10%
- Solubility in water ([6]; water): > 300 mg/mL

Structure (SMILES): Nc1ncnc2c1ncn2CCOCP1(=O)OCC[C@@H](c2cccc(Cl)c2)O1 (stereo in doubt) [trans-, 9-{2-[2,4-trans-(S)-(+)-4-(3-chlorophenyl)-2-oxo-1,3,2-dioxaphosphorinan-2-yl]methoxyethyl} adenine]
- Activation (below measureable detection limit, text) [5]: < 0.05 nmol/min/mg
- Activation Rate [5]: ≦0.05 nmol/mg/min.

Structure (SMILES): Nc1ncnc2c1ncn2CCOCP1(=O)OCCC(c2ccccc2Br)O1 (centres unmarked) [Compound 6]
- Rats, PMEApp levels in liver organ @ 8 hr., 30 mg/kg, p.o. [1]: 7.1 nmol/g

Structure (SMILES): Nc1ncnc2c1ncn2CCOCP(=O)(O)O [PMEA, 9-(2-phosphonylmethoxyethyl)adenine]
- Oral bioavailability in monkeys [7]: < 1%
- Oral bioavailability [8]: < 10%
- AUC0-4h PMEApp levels in hepatocytes [9]: 84 nmol·h/g
- Dose excreted renally / renally cleared [10]: 98%
- Oral bioavailability in humans [11]: < 12%

Structure (SMILES): CC(C)(C)C(=O)OCOP(=O)(COCCn1cnc2c(N)ncnc21)OCOC(=O)C(C)(C)C [bis POM PMEA]
- Oral bioavailability in monkeys [7]: 25%
- Half-life in human serum [12]: < 5 min
- PMEA AUC (dose-normalized plasma), literature [13]: 10.9
- Oral bioavailability in rats [14]: 38%
- Intact prodrug in plasma [15]: not detected
- Dose excreted in feces in the form of PMEA [16]: 43%
- AUC0-12h of PMEA in plasma ([17]; fasted rats): 21.3 µM·h
- Urinary levels of PMEA ([17]; rats, urine 48 hours after treatment): 20.6 % dose
- Oral bioavailability in humans [11]: 41%
